We go through 19 compounds from patent publication US20090069315A1, “Use of Pyrazolo(1,5A)Pyrimidin-7-YL Amine Derivatives in the Treatment of Neurological Disorders” (priority 2006, published 2009).

Series [1] deals with T1, EphA4 (Mus musculus, UniProt Q03137). The series is described as follows: Proof of mechanism: EphA4 phosphorylation in mouse brain after dosing. In kind it is in vivo. Conditions: male NMRI mice, 10 mg/kg; for crossing of the blood brain barrier: inferred from block of brain EphA4 phosphorylation; for EphA4 phosphorylation in vivo in mouse brain: i.v., sacrificed 25 minutes or 1 hour after dosing, FIG. 4. More on the design: from tissue; host or cells: brain of male NMRI mice. The procedure:
Animals were given an i.v dose of relevant compound and sacrificed 25 minutes or 1 hour after dosing (0.25 h or 1 h), the brains removed and subjected to EphA4 immunoprecipitation followed by a phospho-tyrosine Western blot. Four animals were used as controls and three-animals each were used per time point for each drug. From top to bottom, the compounds tested were Compound 1, Compound 7, and Compound 6.
Male NMRI mice were injected with relevant compounds at a dose of 10 mg/kg body weight and were sacrificed either 25 minutes or 1 hour following the dosing (0.25 h or 1 h shown in FIG. 4). The brains were removed and one half of each brain was weighed and homogenized in appropriate volume of lysis buffer for 30 seconds (10 seconds pulse and 10 seconds off—3 times). The homogenate was spun at 12,000 g for 30 minutes. Protein amounts were estimated for supernatants (using BCA) and equal amounts of protein for each condition were subjected to EphA4 immunoprecipitation followed by a phospho-tyrosine western blot. Four control animals were used and three experimental animals per time point were used for each of the compounds tested (Compounds 1, 2, 6, and 7)

In a further series the test system is astrocytes. As to the kind of experiment: In vitro assay for astrogliosis: astrocyte scratch wound (cytokine-induced migration). The settings on record: relative distance of cell migration compared to control; FIG. 3. In kind it is cell-based, mouse. The procedure: The white bar represents the addition of Compound 6. The black bar represents no compounds added.
Assay Astrocytes are prepared from the cerebral cortex of neonatal C57BL/6 mice (P1-P2). Cells are maintained in Dulbecco's modified Eagle's medium with 10% FBS. 4-7 weeks old astrocytes are plated to confluence in 2 well chamber slides coated with poly-D-lysine for the scratch wound assay and serum starved. 48 hrs after serum starvation, the monolayer of astrocytes is scratched with sterile 200 μl tips and washed twice with PBS to get rid of cell debris. Conditioned medium (+/−cytokines) is added to the wounded astrocytes. The microscopic images of the scratch is captured at a magnification of 10× right after scratch and considered as time point 0.24 hrs, 48 hrs or 72 hrs after scratch, the same region of scratch is imaged and fixed with methanol containing, 1 μg/ml of DAPI to monitor migration and proliferation of astrocytes.

The test system of series [2] is embryonic cortical neurons. The series is described as follows: In vitro assay for neurite outgrowth/axon regeneration: E16 cortical neurons on astrocyte monolayers. In kind it is cell-based. Conditions: 100 nM; immunofluorescence images, FIG. 2A. How it is done:
This assay is used to assess neurite outgrowth inhibition of embryonic cortical neurons by Eph receptors expressed on astrocytes or neurite outgrowth inhibition of post-natal cortical neurons by ephrin ligand present in myelin. E16 (embryonic day 16) cortical neurons are plated onto confluent astrocyte monolayers plated in 4-well chamber slides. Pharmacological inhibitors, are added to the medium and the length of longest neurite from each neuron is measured under each condition (FIG. 2A depicts an example of neurons plated in the presence of Compound 1 and visualized with the neuronal marker, Tuj-1) and compared to average neurite length on astrocytes in the absence of any pharmacological agents. FIG. 2B depicts the quantitation of neurite outgrowth effects observed with Compound 6 and Compound 7 (all tested at 100 nM concentration) in cortical cultures plated on astrocytes.

For series [3], the target named is T1, EphA4. As to the kind of experiment: EphA4 autophosphorylation assay in primary astrocyte cultures (EphA4 immunoprecipitation, phospho-tyrosine Western). Format: cell-based. Set-up: Primary astrocyte cultures are established from neonatal mouse cortex; endogenous in cells; host or cells: primary astrocytes from neonatal mouse cortex. Conditions: cells pre-treated with 100 nM; FIG. 1A. The procedure: FIG. 1A, lanes and 2 represent samples from cells treated with either control IgG-Fc or with the ligand ephrinB3-Fc. […] represent samples from cells that have been pre-treated with Compound 1 (100 nM) and are then stimulated with IgG-Fc or ephrinB3-Fc in the combined presence of the inhibitor (Compound I)(lanes 3, 4) or in its absence (lanes 5, 6). FIG. 1B, lanes 1 and 2 show EphA4 phosphorylation in control (untreated) and ephrinB3-Fc stimulated cells following serum starvation. All other lanes represent samples from cells stimulated with ephrinB3-Fc in the presence of varying concentrations (as indicated) of tested Eph inhibitors.
Primary astrocyte cultures are established from neonatal mouse cortex and purified so as to get about 95-98 pure astrocyte cultures. […] Cells are lysed, and the lysates subjected to EphA4 immunoprecipitation and subsequently analysed on Westerns for level of receptor phosphorylation using a phospho-tyrosine antibody.

T1 sequence (Q03137 20-986): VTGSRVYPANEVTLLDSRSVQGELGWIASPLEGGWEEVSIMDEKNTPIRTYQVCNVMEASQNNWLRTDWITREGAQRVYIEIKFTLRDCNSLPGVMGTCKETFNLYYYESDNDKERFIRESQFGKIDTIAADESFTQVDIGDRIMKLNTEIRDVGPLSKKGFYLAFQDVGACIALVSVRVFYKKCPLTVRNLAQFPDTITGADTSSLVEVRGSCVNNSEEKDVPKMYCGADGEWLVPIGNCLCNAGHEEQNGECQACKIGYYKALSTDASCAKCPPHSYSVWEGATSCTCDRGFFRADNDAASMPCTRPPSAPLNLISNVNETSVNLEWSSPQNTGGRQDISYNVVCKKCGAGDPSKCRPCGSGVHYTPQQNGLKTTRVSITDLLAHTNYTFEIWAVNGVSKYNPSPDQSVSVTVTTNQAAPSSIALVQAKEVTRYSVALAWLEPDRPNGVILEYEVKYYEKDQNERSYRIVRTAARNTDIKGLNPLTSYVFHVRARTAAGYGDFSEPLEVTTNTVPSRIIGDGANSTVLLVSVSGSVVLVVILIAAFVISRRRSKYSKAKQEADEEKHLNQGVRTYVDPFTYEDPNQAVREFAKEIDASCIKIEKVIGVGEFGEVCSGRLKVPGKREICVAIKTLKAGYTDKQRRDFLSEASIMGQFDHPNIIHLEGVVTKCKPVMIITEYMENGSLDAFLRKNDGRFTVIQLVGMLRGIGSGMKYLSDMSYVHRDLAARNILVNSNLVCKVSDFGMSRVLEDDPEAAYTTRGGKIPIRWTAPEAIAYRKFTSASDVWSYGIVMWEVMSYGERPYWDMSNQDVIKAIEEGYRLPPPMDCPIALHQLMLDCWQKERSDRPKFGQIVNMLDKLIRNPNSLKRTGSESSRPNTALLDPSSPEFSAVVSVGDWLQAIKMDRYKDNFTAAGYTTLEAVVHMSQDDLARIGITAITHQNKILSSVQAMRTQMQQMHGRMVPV

On to `COc1ccc(-c2cnn3c(N)c(-c4ccc(F)c(Cl)c4)c(C)nc23)cc1OC` [Example 101, 6-(3-Chloro-4-fluoro-phenyl)-3-(3,4-dimethoxy-phenyl)-5-methyl-pyrazolo[1,5-a]pyrimidin-7-ylamine], for which the melting point lay within 235 to 238 °C. In turn, `COc1ccc(-c2cnn3c(N)c(-c4cccc(Cl)c4)c(CF)nc23)cc1OC` [Example 99, 6-(3-Chloro-phenyl)-3-(3,4-dimethoxy-phenyl)-5-fluoromethyl-pyrazolo[1,5-a]pyrimidin-7-ylamine] yielded a melting point of 228 to 230 °C.

`CN1CCN(c2ccc(-c3cnn4c(N)c(-c5ccccc5Cl)cnc34)cc2)CC1` [Example 84, 6-(2-Chloro-phenyl)-3-[4-(4-methyl-piperazin-1-yl)-phenyl]-pyrazolo[1,5-a]-pyrimidin-7-ylamine] gave a melting point of 197 to 200 °C. The same measure, in the same setting: to `COc1ccc(-c2cnn3c(N)c(-c4ccc(F)cc4)c(C)nc23)cc1` [Example 103, 6-(4-Fluoro-phenyl)-3-(4-methoxy-phenyl)-5-methyl-pyrazolo[1,5-a]pyrimidin-7-ylamine] belongs 243 to 244 °C; to `Cc1nc2c(-c3cccc(N4CCN(C5CCN(C)CC5)CC4)c3)cnn2c(N)c1-c1cccc(Cl)c1` [Compound 5, 6-(3-Chloro-phenyl)-5-methyl-3-{3-[4-(1-methyl-piperidin-4-yl)-piperazin-1-yl]-phenyl}-pyrazolo[1,5-a]pyrimidin-7-ylamine], 180 to 185 °C. Regarding `Cc1nc2c(-c3ccc(OCCN(C)C)cc3)cnn2c(N)c1-c1cccc(Cl)c1` [Compound 7, 6-(3-Chloro-phenyl)-3-[4-(2-dimethylamino-ethoxy)-phenyl]-5-methyl-1-pyrazolo[1,5-a]pyrimidin-7-ylamine], on EphA4 [1], the “crossing of the blood brain barrier” value is listed as “cross the blood brain barrier” and the “EphA4 phosphorylation in vivo in mouse brain” value (from here on “EphA4 phosphorylation in vivo”) is recorded as “effectively block phosphorylation of EphA4 receptor in vivo”. In turn, `CN1CCN(c2cccc(-c3cnn4c(N)c(-c5ccccc5Cl)cnc34)c2)CC1` [Example 85, 6-(2-Chloro-phenyl)-3-[3-(4-methyl-piperazin-1-yl)-phenyl]-pyrazolo[1,5-a]-pyrimidin-7-ylamine] returned a melting point of 200 to 203 °C. Turning to `Cc1nc2c(-c3cccc(N4CCN(CCO)CC4)c3)cnn2c(N)c1-c1ccc(F)c(F)c1` [Example 108, 2-(4-{3-[7-Amino-6-(3,4-difluoro-phenyl)-5-methyl-pyrazolo[1,5-a]pyrimidin-3-yl]-phenyl}-piperazin-1-yl)-ethanol], the melting point was 172 to 174 °C. The same measure, in the same setting: to `Cc1nc2c(-c3cccc(N4CCN(CCO)CC4)c3)cnn2c(N)c1-c1ccc(F)c(Cl)c1` [Compound 4, 2-(4-{3-[7-Amino-6-(3-chloro-4-fluoro-phenyl)-5-methyl-pyrazolo[1,5-a]pyrimidin-3-yl]-phenyl}-piperazin-1-yl)-ethanol] belongs 104 to 107 °C; to `Cc1nc2c(-c3cccc(N4CCN(C)CC4)c3)cnn2c(N)c1-c1cccc(Br)c1` [Example 91, 6-(3-Bromo-phenyl)-5-methyl-3-[3-(4-methyl-piperazin-1-yl)-phenyl]-pyrazol-o[1,5-a]pyrimidin-7-ylamine], 107 to 113 °C. With `CN1CCN(c2cccc(-c3cnn4c(N)c(Cc5ccccc5)cnc34)c2)CC1` [Example 98, 6-Benzyl-3-[3-(4-methyl-piperazin-1-yl)-phenyl]-pyrazolo[1,5-a]pyrimidin-7-ylamine], the melting point was in the range of 72 to 75 °C.

For the compound `COc1ccc(-c2cnn3c(N)c(-c4cccc(Cl)c4)c(CN4CCNCC4)nc23)cc1OC` [Compound 6, 6-(3-Chloro-7-phenyl)-3-(3,4-dimethoxy-phenyl)-5-piperazin-1-ylmethyl-pyrazolo[1,5-a]pyrimidin-7-ylamine], in the series on astrocytes, the “astrocyte migration induced by cytokines (TGF-α, LIF, and IFN)” value was “block astrocyte migration”. Also, at EphA4 [1], the “crossing of the blood brain barrier” value was “cross the blood brain barrier” and the “EphA4 phosphorylation in vivo” value is “effectively block phosphorylation of EphA4 receptor in vivo”. Compound `CN(C)c1ccc(-c2cnn3c(N)c(-c4ccc(NS(=O)(=O)c5cccc(Cl)c5Cl)cc4)cnc23)cc1` [Example 17, N-{4-[7-Amino-3-(4-dimethylamino-phenyl)-pyrazolo[1,5-a]pyrimidin-6-yl]-phenyl}-2,3-dichloro-benzenesulfonamide] showed a melting point of 143 to 146 °C. For `CCN(CC)C1CCN(c2cccc(-c3cnn4c(N)c(-c5cccc(Cl)c5)c(C)nc34)c2)CC1` [Compound 1, 6-(3-Chloro-phenyl)-3-[3-(4-diethylamino-piperidin-1-yl)-phenyl]-5-methyl-pyrazolo[1,5-a]pyrimidin-7-ylamine], the melting point was in the range of 163 to 168 °C. For the same compound, in series [2], the “overcoming neurite outgrowth inhibition” value is “able to overcome neurite outgrowth inhibition”. Moreover, at EphA4 [1], the “crossing of the blood brain barrier” value was “cross the blood brain barrier” and the “EphA4 phosphorylation in vivo” value is given as “effectively block phosphorylation of EphA4 receptor in vivo”. The “inhibition of EphA4 auto-phosphorylation (phospho-tyrosine Western blot)” value at EphA4 [3] is “inhibition of EphA4 auto-phosphorylation”. Turning to `CN(C)c1ccc(-c2cnn3c(N)c(-c4ccc(OS(=O)(=O)c5ccc(Cl)cc5)cc4)cnc23)cc1` [Example 18, 4-Chloro-benzenesulfonic acid 4-[7-amino-3-(4-dimethylamino-phenyl)-pyrazolo[1,5-a]pyrimidin-6-yl]-phenyl ester], the melting point was in the range of 186 to 191.88 °C.

`COc1ccc(-c2cnn3c(N)c(-c4cccc(Cl)c4)c(C)nc23)cc1` [Example 95, 6-(3-Chloro-phenyl)-3-(4-methoxy-phenyl)-5-methyl-pyrazolo[1,5-a]pyrimidin-7-ylamine] registered a melting point of 171 to 172 °C. `COc1ccc(-c2cnn3c(N)c(-c4cccc(Cl)c4)c(C)nc23)cc1OC` [Compound 3, 6-(3-Chloro-phenyl)-3-(3,4-dimethoxy-phenyl)-5-methyl-pyrazolo[1,5-a]pyrimidin-7-ylamine] gave a melting point of 223 to 226 °C. For the compound `COc1ccc(-c2cnn3c(N)c(-c4ccc(F)c(Cl)c4)c(C)nc23)cc1` [Example 102, 6-(3-Chloro-4-fluoro-phenyl)-3-(4-methoxy-phenyl)-5-methyl-pyrazolo[1,5-a]-pyrimidin-7-ylamine], the melting point lay in the range of 224 to 227 °C.

The compound `CCN(CC)C1CCN(c2cccc(-c3cnn4c(N)c(-c5ccc(F)cc5)c(C)nc34)c2)CC1` [Example 112, 3-[3-(4-Diethylamino-piperidin-1-yl)-phenyl]-6-(4-fluoro-phenyl)-5-methyl-pyrazolo[1,5-a]pyrimidin-7-ylamine] gave a melting point of 208 to 210 °C.

In general, melting point refers to the temperature, or range, at which the solid turns liquid.
